{"source": "patent US5854039A", "about": "“Transformation of pichia methanolica” (ZymoGenetics, Inc., priority 1997, dated 1998)", "tested_on": "P. methanolica cells (strain CBS6515), UV-mutagenized", "experiment": "Nystatin enrichment for auxotrophic mutants, titering for colony forming units", "assay_type": "cell-based, Pichia methanolica", "settings": "1 mg nystatin added to remainder of 500 ml culture in minimal broth, one additional hour with shaking, nystatin-treated versus control cells", "protocol": "Large-scale mutagenesis was then carried out using a 2-second UV exposure to provide about 20% killing. Cells were plated at approximately 10^4 cells/plate onto eight YEPD plates that were supplemented with 100 mg/L each of uracil, adenine, and leucine, which were added to supplement the growth of potential auxotrophs having the cognate deficiencies. Following UV exposure the plates were wrapped in foil and incubated overnight at 30° C. The following day the colonies on the plates (~10^5 total) were resuspended in water and washed once with water. An amount of cell suspension sufficient to give an OD600 of 0.1-0.2 was used to inoculate 500 ml of minimal broth made with yeast nitrogen base without amino acids or ammonia, supplemented with 1% glucose and 400 μg/L biotin. The culture was placed in a 2.8 L baffled Bell flask and shaken vigorously overnight at 30° C. The following day the cells had reached an OD600 of ~1.0-2.0. The cells were pelleted and resuspended in 500 ml of minimal broth supplemented with 5 g/L ammonium sulfate. The cell suspension was placed in a 2.8 L baffled Bell flask and shaken vigorously at 30° C. for 6 hours. 50 ml of the culture was set aside in a 250-ml flask as a control, and to the remainder of the culture was added 1 mg nystatin to select for auxotrophic mutants (Snow, Nature 211:206-207, 1966). […]", "data": [{"smiles": "C[C@@H]1[C@H](O)[C@@H](C)/C=C/C=C/CC/C=C/C=C/C=C/C=C/C(O[C@H]2O[C@H](C)[C@@H](O)[C@H](N)[C@@H]2O)CC2O[C@](O)(CC(O)C(O)CCC(O)CC(O)CC(O)CC(=O)O[C@H]1C)CC(O)C2C(=O)O", "note": "(stereo partly shown) [nystatin]", "values": [{"measurement": "decrease in the number of viable cells (factor)", "value": "10^4"}]}]}
